ChEMBL document CHEMBL4342467, “Discovery of a Novel Dual-Target Inhibitor of ERK1 and ERK5 That Induces Regulated Cell Death to Overcome Compensatory Mechanism in Specific Tumor Types” (J Med Chem, 2020)

Assays:
[1] = target: Mitogen-activated protein kinase 7 (Homo sapiens) (UniProt Q13164); assay: Inhibition of ERK5 (unknown origin) at 1 uM by Z'-Lyte assay relative to control
MKN-74 = assay: Antiproliferative activity against human MKN74 cells assessed as reduction in cell viability measured after 24 hrs; type: functional, cell-based; details: MKN-74, 24 h
HL-60 = assay: Antiproliferative activity against human HL60 cells assessed as reduction in cell viability measured after 24 hrs; type: functional, cell-based; details: HL-60, 24 h
[2] = target: Mitogen-activated protein kinase 1 (Homo sapiens) (UniProt P28482); assay: Inhibition of ERK2 (unknown origin) at 1 uM by Z'-Lyte assay relative to control
Sequence of Mitogen-activated protein kinase 1 (Homo sapiens) (P28482 whole entry): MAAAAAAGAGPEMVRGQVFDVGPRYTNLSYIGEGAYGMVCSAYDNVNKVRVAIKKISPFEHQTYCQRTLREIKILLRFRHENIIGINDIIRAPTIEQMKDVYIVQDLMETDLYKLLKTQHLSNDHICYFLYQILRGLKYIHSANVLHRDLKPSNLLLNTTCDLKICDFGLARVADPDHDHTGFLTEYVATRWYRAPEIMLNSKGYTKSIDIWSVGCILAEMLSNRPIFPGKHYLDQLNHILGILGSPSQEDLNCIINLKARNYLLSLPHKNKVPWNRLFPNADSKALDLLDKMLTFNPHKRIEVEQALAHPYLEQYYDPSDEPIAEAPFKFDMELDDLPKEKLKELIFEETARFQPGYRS

[3] = target: Mitogen-activated protein kinase 3 (Homo sapiens) (UniProt P27361); assay: Inhibition of ERK1 (unknown origin) at 1 uM by Z'-Lyte assay relative to control
Sequence of Mitogen-activated protein kinase 3 (Homo sapiens) (P27361 whole entry): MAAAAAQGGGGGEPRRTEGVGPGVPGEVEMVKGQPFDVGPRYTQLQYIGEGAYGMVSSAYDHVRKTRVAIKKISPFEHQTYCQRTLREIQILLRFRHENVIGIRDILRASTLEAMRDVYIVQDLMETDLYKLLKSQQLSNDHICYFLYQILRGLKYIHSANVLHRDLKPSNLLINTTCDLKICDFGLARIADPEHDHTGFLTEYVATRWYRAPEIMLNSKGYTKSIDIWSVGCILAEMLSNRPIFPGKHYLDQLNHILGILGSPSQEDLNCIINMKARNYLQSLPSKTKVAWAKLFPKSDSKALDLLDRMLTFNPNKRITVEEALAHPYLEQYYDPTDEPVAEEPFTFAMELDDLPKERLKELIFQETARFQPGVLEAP

HeLa = assay: Antiproliferative activity against human HeLa cells assessed as reduction in cell viability measured after 24 hrs; type: functional, cell-based

Sequence of Mitogen-activated protein kinase 7 (Homo sapiens) (Q13164 2-816 limits assumed): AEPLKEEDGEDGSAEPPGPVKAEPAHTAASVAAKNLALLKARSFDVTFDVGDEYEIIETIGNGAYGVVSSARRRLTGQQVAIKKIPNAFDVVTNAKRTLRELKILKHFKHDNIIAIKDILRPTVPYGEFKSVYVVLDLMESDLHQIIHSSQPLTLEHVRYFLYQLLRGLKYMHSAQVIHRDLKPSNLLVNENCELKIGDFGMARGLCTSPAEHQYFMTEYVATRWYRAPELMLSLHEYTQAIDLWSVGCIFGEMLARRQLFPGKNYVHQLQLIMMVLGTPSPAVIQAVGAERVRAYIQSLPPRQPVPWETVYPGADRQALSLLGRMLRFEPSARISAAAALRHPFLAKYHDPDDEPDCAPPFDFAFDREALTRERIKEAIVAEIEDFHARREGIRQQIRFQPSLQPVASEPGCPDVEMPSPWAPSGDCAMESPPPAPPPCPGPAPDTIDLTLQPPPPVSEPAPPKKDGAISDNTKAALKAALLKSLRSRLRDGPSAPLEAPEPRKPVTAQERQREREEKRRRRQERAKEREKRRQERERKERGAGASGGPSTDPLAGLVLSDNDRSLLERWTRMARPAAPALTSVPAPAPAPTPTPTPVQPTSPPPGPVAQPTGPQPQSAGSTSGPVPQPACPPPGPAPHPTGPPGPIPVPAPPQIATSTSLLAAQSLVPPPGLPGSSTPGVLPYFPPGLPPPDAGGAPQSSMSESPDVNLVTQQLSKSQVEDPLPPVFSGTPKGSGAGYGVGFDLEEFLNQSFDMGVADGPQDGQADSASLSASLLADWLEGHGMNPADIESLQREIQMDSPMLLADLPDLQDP

Row | Compound | inhibition [1] | IC50 (MKN-74) | IC50 (HL-60) | inhibition [2] | inhibition [3] | IC50 (HeLa)
1 | Cc1ccc(C(=O)Nc2sc3c(c2C(N)=O)CCN(C(=S)Nc2cc(C(F)(F)F)cc(C(F)(F)F)c2)C3)cc1 | 70.8% | 14.9 µM | 11.8 µM | 80.1% | 77.4% | 17.1 µM
2 | NC(=O)c1c(NC(=O)c2ccccc2C(F)(F)F)sc2c1CCN(C(=S)Nc1ccccc1Cl)C2 | 56.5% | 21.9 µM | 17.6 µM | 80.9% | 78.8% | 46.9 µM
3 | NC(=O)c1c(NC(=O)c2ccccc2F)sc2c1CCN(C(=S)Nc1cc(C(F)(F)F)cc(C(F)(F)F)c1)C2 | 77.3% | 13.3 µM | 17.9 µM | 68.6% | 76.6% | 28 µM
4 | NC(=O)c1c(NC(=O)c2ccccc2C(F)(F)F)sc2c1CCN(C(=S)Nc1ccccc1Br)C2 | 73.3% | 23.9 µM | 25.5 µM | 85.5% | 82.5% | > 50 µM
5 | NC(=O)c1c(NC(=O)c2ccccc2Br)sc2c1CCN(C(=S)Nc1ccccc1Br)C2 | 88.4% | 13.7 µM | 17.6 µM | 82.1% | 80.9% | 24.7 µM
6 | NC(=O)c1c(NC(=O)c2ccc(C(F)(F)F)cc2)sc2c1CCN(Cc1ccccc1F)C2 | 56.8% | 26.9 µM | > 50 µM | 76.8% | 72.2% | > 50 µM
7 | NC(=O)c1c(NC(=O)c2ccccc2F)sc2c1CCN(Cc1ccc(Cl)cc1Cl)C2 | 38% | 9.61 µM | 13.1 µM | 32.4% | 55.7% | 27.5 µM
8 | CSc1ccccc1NC(=S)N1CCc2c(sc(NC(=O)c3ccccc3Cl)c2C(N)=O)C1 | 52.6% | 13.8 µM | 14.6 µM | 64.6% | 69.5% | 43.6 µM
9 | Cc1ccc(C(=O)Nc2sc3c(c2C(N)=O)CCN(C(=O)Nc2ccccc2Cl)C3)cc1 | 53.8% | 27.6 µM | 14.6 µM | 71.9% | 70.4% | 32.9 µM
10 | COc1ccccc1C(=O)Nc1sc2c(c1C(N)=O)CCN(C(=S)Nc1ccccc1Cl)C2 | 53.5% | 20.5 µM | 20.8 µM | 67.1% | 66.3% | > 50 µM
11 | NC(=O)c1c(NC(=O)c2ccccc2Cl)sc2c1CCN(C(=S)Nc1ccccc1)C2 | 59.5% | 15.6 µM | 5.94 µM | 76.5% | 85.4% | 46.7 µM
12 | NC(=O)c1c(NC(=O)c2cccc([N+](=O)[O-])c2)sc2c1CCN(Cc1ccc(Cl)cc1Cl)C2 | 77.9% | 16.5 µM | 19.8 µM | 65.3% | 67.2% | 33 µM
13 | NC(=O)c1c(NC(=O)c2ccccc2Cl)sc2c1CCNC2 | 62.7% | 28.7 µM | 18.6 µM | 64.9% | 61.5% | 45 µM
14 | COc1ccc(NC(=S)N2CCc3c(sc(NC(=O)c4ccccc4Cl)c3C(N)=O)C2)cc1 | 55.7% | 19.6 µM | 15.7 µM | 68.7% | 78.1% | 36.4 µM
15 | NC(=O)c1c(NC(=O)c2ccccc2Cl)sc2c1CCN(Cc1ccc([N+](=O)[O-])cc1)C2 | 65% | 31.5 µM | 11.4 µM | 63.1% | 66.2% | 46.1 µM
16 | NC(=O)c1c(NC(=O)c2ccccc2F)sc2c1CCN(C(=S)Nc1ccccc1Cl)C2 | 65.2% | 11.1 µM | 12.5 µM | 68.6% | 62.4% | 19.4 µM
17 | Cc1ccccc1NC(=S)N1CCc2c(sc(NC(=O)c3ccccc3C(F)(F)F)c2C(N)=O)C1 | 48.3% | 47.4 µM | 25.1 µM | 62.8% | 64.9% | 47 µM
18 | NC(=O)c1c(NC(=O)c2ccccc2Br)sc2c1CCN(C(=S)Nc1ccccc1F)C2 | 65.7% | > 50 µM | > 50 µM | 68.7% | 70.1% | > 50 µM
19 | NC(=O)c1c(NC(=O)c2ccccc2Cl)sc2c1CCN(C(=S)Nc1ccccc1I)C2 | 81% | 2.63 µM | 4.43 µM | 87.3% | 88% | 28.9 µM
20 | NC(=O)c1c(NC(=O)c2ccccc2Cl)sc2c1CCN(C(=O)Nc1cc(C(F)(F)F)cc(C(F)(F)F)c1)C2 | 80.3% | 24.3 µM | 26.7 µM | 89.2% | 91% | 38.6 µM

Row | Compound | inhibition [1] | IC50 (MKN-74) | IC50 (HL-60) | inhibition [2] | inhibition [3] | IC50 (HeLa)
21 | COc1ccccc1NC(=S)N1CCc2c(sc(NC(=O)c3ccccc3Cl)c2C(N)=O)C1 | 53.7% | 35.2 µM | 40.9 µM | 70.6% | 71.3% | > 50 µM
22 | NC(=O)c1c(NC(=O)c2ccc(C(F)(F)F)cc2)sc2c1CCN(C(=S)Nc1cc(C(F)(F)F)cc(C(F)(F)F)c1)C2 | 54.2% | 13.8 µM | 16.3 µM | 66% | 79.4% | 49 µM
23 | NC(=O)c1c(NC(=O)c2cccc([N+](=O)[O-])c2)sc2c1CCN(C(=S)Nc1ccccc1Cl)C2 | 70.7% | 8.85 µM | 7.04 µM | 58.5% | 64.2% | 40.3 µM
24 | NC(=O)c1c(NC(=O)c2ccccc2F)sc2c1CCN(Cc1cccc(Cl)c1)C2 | 42.5% | 23.3 µM | 19.8 µM | 48.8% | 49.3% | 49.5 µM
25 | Cc1ccccc1NC(=S)N1CCc2c(sc(NC(=O)c3ccccc3Cl)c2C(N)=O)C1 | 59.3% | 11.7 µM | 22.6 µM | 72.8% | 68.4% | > 50 µM
26 | NC(=O)c1c(NC(=O)c2ccncn2)sc2c1CCN(C(=S)Nc1ccccc1Cl)C2 | 38.5% | 28.4 µM | 34.6 µM | 45.7% | 48.5% | > 50 µM
27 | COc1ccccc1NC(=S)N1CCc2c(sc(NC(=O)c3ccccc3C(F)(F)F)c2C(N)=O)C1 | 61.7% | 34.5 µM | > 50 µM | 74.9% | 77.6% | > 50 µM
28 | NC(=O)c1c(NC(=O)c2cccc([N+](=O)[O-])c2)sc2c1CCN(C(=O)Nc1ccccc1Cl)C2 | 65.7% | 22.7 µM | 18.5 µM | 60.4% | 71.3% | > 50 µM
29 | NC(=O)c1c(NC(=O)c2ccccc2Br)sc2c1CCN(C(=S)Nc1ccccc1C(F)(F)F)C2 | 78.6% | 24.3 µM | 27.4 µM | 72.1% | 79.3% | 39.6 µM
30 | Cc1ccc(C(=O)Nc2sc3c(c2C(N)=O)CCN(Cc2c(Cl)cccc2Cl)C3)cc1 | 46% | 12.3 µM | 10 µM | 45.4% | 42.8% | 47.4 µM
31 | NC(=O)c1c(NC(=O)c2ccccc2F)sc2c1CCN(C(=O)Nc1ccccc1Cl)C2 | 54.9% | 49.6 µM | 32.7 µM | 62.4% | 65% | > 50 µM
32 | NC(=O)c1c(NC(=O)c2ccc(C(F)(F)F)cc2)sc2c1CCN(C(=O)Nc1ccccc1Cl)C2 | 62.2% | 43.9 µM | > 50 µM | 77.6% | 78.3% | > 50 µM
33 | NC(=O)c1c(NC(=O)c2ccccc2Cl)sc2c1CCN(C(=S)Nc1ccccc1-c1ccccc1)C2 | 40.5% | 25.8 µM | 34.4 µM | 64.7% | 60.9% | 24.9 µM
34 | NC(=O)c1c(NC(=O)c2ccccc2Cl)sc2c1CCN(Cc1ccccc1)C2 | 63.7% | 14.5 µM | 12 µM | 62.9% | 60.1% | 38.4 µM
35 | NC(=O)c1c(NC(=O)c2ccc(C(F)(F)F)cc2)sc2c1CCN(Cc1c(Cl)cccc1Cl)C2 | 38.7% | 8.53 µM | 10.6 µM | 35.6% | 37.3% | > 50 µM
36 | Cc1ccc(C(=O)Nc2sc3c(c2C(N)=O)CCN(Cc2ccc(Cl)cc2Cl)C3)cc1 | 52.3% | 25.5 µM | 19.9 µM | 53.7% | 32.2% | > 50 µM
37 | NC(=O)c1c(NC(=O)c2ccc(C(F)(F)F)cc2)sc2c1CCN(C(=S)Nc1ccccc1Cl)C2 | 57.5% | 16.4 µM | 36.1 µM | 79% | 75.6% | 44 µM
38 | NC(=O)c1c(NC(=O)c2cccc([N+](=O)[O-])c2)sc2c1CCN(C(=S)Nc1cc(C(F)(F)F)cc(C(F)(F)F)c1)C2 | 82.9% | 25.8 µM | 16.4 µM | 75% | 80.2% | 27.2 µM
39 | NC(=O)c1c(NC(=O)c2ccccc2Cl)sc2c1CCN(Cc1ccccc1F)C2 | 37.9% | 12.9 µM | 21.8 µM | 71.6% | 68.3% | > 50 µM
